These results are taken from publication PMC4607647 (Bioorganic & medicinal chemistry letters, 2015).

Holding throughout (type): biochemical
In one assay the target is LG-PARP10cat (Homo sapiens, UniProt Q53GL7, L926G). As to conditions: for increase in potency against LG-PARP10cat compared to 1: compared to parent dq scaffold 1.
A further assay concerns the target GFP-LG-PARP10 (Homo sapiens, UniProt Q53GL7, L926G). As to conditions: immunoprecipitated from HEK 293T cells, 6-alkyne-NAD+ substrate.
The next assay deals with T1, GFP-WT-PARP10 (Homo sapiens, UniProt Q53GL7).
T1 sequence (Q53GL7 1-1025): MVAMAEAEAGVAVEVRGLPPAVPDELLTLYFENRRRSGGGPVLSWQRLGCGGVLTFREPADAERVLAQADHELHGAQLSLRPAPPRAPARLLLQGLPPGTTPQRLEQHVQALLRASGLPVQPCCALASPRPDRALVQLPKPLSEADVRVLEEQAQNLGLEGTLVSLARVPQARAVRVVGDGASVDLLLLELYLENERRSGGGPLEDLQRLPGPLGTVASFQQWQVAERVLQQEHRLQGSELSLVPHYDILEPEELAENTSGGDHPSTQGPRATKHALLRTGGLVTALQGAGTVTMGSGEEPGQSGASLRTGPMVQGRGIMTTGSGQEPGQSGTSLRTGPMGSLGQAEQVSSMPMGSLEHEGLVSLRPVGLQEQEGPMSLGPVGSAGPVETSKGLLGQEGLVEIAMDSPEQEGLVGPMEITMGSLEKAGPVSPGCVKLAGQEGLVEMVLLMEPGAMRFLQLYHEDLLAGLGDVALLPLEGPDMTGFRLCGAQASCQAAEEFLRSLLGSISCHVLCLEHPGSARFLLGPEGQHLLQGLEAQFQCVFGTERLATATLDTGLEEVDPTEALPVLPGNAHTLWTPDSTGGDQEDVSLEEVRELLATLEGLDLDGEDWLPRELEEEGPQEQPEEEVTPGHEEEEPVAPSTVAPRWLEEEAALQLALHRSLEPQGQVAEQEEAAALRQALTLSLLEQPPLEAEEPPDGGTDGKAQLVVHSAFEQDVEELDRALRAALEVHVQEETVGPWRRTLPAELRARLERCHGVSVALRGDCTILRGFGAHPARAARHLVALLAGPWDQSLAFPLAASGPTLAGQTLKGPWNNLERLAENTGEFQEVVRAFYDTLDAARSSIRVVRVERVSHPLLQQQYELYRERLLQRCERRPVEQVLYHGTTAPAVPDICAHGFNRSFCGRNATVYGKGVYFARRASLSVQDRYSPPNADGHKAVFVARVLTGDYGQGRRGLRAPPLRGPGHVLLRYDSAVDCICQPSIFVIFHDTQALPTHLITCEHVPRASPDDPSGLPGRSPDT
The conditions noted are these: up to 100 μM; immunoprecipitated from HEK 293T cells, 6-alkyne-NAD+ substrate.

Chain of LG-PARP10cat (Q53GL7 806-1025 L926G): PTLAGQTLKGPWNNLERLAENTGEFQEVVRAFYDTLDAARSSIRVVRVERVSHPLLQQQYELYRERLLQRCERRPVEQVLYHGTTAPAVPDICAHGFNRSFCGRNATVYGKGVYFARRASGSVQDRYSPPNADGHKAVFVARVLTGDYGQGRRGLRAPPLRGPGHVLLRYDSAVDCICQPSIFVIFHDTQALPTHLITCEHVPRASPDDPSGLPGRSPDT
Chain of GFP-LG-PARP10 (Q53GL7 whole entry L926G): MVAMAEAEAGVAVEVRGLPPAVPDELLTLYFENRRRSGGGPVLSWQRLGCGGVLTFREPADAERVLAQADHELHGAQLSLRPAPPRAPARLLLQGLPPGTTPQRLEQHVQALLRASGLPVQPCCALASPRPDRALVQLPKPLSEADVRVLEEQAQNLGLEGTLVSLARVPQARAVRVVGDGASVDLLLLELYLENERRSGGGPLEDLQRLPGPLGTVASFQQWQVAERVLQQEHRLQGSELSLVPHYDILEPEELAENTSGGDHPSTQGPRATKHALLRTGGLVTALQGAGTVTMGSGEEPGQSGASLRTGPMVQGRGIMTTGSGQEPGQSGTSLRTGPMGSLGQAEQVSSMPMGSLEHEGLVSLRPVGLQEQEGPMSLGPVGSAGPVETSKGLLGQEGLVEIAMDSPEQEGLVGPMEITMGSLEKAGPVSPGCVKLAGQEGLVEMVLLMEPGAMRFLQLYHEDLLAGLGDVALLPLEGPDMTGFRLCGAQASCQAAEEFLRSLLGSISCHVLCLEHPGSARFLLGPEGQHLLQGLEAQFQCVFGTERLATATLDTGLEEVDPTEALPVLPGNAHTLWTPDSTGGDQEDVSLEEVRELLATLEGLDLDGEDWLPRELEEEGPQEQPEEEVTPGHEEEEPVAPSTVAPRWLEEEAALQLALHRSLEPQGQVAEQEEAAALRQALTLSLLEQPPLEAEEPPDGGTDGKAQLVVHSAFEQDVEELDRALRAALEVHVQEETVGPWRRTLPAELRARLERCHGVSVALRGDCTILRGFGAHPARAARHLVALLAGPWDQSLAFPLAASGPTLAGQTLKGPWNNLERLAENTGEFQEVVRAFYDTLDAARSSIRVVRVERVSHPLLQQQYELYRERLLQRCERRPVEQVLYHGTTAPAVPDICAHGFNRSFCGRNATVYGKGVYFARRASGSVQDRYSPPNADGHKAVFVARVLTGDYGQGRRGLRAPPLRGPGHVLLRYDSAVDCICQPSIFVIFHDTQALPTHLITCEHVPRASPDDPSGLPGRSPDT

As to `O=C1NCCc2ccc(Br)cc21` [Compound 4, 7-Br-dq], at LG-PARP10cat (LG- versus WT-PARP10cat), the “selectivity for LG-PARP10cat versus WT-PARP10cat” value is “greater than 10 fold”. Besides, on GFP-LG-PARP10, the “inhibition of auto-ADP-ribosylation of GFP-LG-PARP10” value is on record as “inhibited the auto-ADP-ribosylation of GFP-LG-PARP10 in a dose-dependent manner”. The “effect on auto-ADP-ribosylation of GFP-WT-PARP10” value at GFP-WT-PARP10 is “unaffected”.
Regarding `Cc1ccc2c(c1)C(=O)NCC2` [Compound 5], on LG-PARP10cat, the “increase in potency against LG-PARP10cat compared to 1” value is on record as “did not exhibit increased potency”.
Regarding `O=C1NCCc2ccc(C(F)(F)F)cc21` [Compound 6], the “increase in potency against LG-PARP10cat compared to 1” value at LG-PARP10cat was found to be 2 fold.
Still for that read-out and setting: then `O=C1NCCc2ccc(O)cc21` [Compound 7], with “did not exhibit increased potency”; and `COc1ccc2c(c1)C(=O)NCC2` [Compound 8], with “did not exhibit increased potency”.
